Data taken from patent US12588689B2, “Feed additive composition containing erythritol” (EASY BIO, INC, priority 2020, dated 2026).
Marks after values point to notes of the source that are not given here.

System: broiler chickens (Ross 308)
Assay: Broiler chicken specification test, composition containing erythritol (noise and high temperature stress)
Assay type: in vivo
Description: To investigate the influence of composition containing erythritol on high temperature stress reduction in summer season, 1,280 broiler chickens (Ross 308; male and female chickens) with average weight of 44.0 g and 1 day old were divided into eight treatment groups with 10 repetitions, and then, 16 chickens were arbitrarily located in total 80 fences, thereby performing breeding tests. The mixing rates represent weight ratios, and additives by treatment group are post-formulated in a farm. The erythritol (99%) used in the formulation was purchased at Vision Pharmalab Co., Ltd., and the beta-glucan was used with Biolife (ENT Co., Ltd., 40 to 50% beta-glucan content) used in the fourth embodiment of the present invention. • Control group (CON): Formulated feed • E: Formulated feed+0.02% erythritol • B: Formulated feed+0.02% beta-glucan • L: Formulated feed+0.02% lipidol • E+B: Formulated feed+0.02% erythritol+0.02% beta-glucan • E+L: Formulated feed+0.02% erythritol+0.02% lipidol • B+L: Formulated feed+0.02% beta-glucan+0.02% lipidol • E+B+L: Formulated feed+0.02% erythritol+0.02% beta-glucan+0.02% lipidol
The feed and water were sufficiently supplied and freely fed. So as to cause stress, 80 to 100 dB noise was produced two times per a day for ten minutes, and to cause high temperature stress, Temperature-Humidity Index (THI) as shown in FIG. 4 was kept.
The weights and feed intake were measured on week 1, week 3, and week 5 to calculate weight gain per day, feed intake per day, and feed conversion ratios (FCR), and the calculated results are listed in Table 6, together with mortality rates.

SMILES: OC[C@@H](O)[C@@H](O)CO [E, erythritol]
- Feed conversion ratio (Step 1 (1~7 days of age)): 1.36
- Feed intake (Step 1 (1~7 days of age)): 19.4 g/day
- Mortality rate (Step 1 (1~7 days of age)): 0.0%
- Weight gain (Step 1 (1~7 days of age)): 14.3 g/day
- Weight (Step 1 (1~7 days of age), 0.02% of each additive in formulated feed): 144.0 g
- Feed conversion ratio (Step 2 (8~21 days of age)): 1.74^a
- Feed intake (Step 2 (8~21 days of age)): 69.3 g/day
- Mortality rate (Step 2 (8~21 days of age)): 1.3%
- Weight (Step 2 (8~21 days of age)): 705.4^e g
- Weight gain (Step 2 (8~21 days of age)): 40.1^d g/day
- Feed conversion ratio (Step 3 (22~35 days of age)): 1.88
- Feed intake (Step 3 (22~35 days of age)): 236.9 g/day
- Mortality rate (Step 3 (22~35 days of age)): 3.8%
- Weight (Step 3 (22~35 days of age)): 1592.3^e g
- Weight gain (Step 3 (22~35 days of age)): 126.7^c g/day
- Feed conversion ratio (Total (1~35 days of age)): 1.79^a
- Feed intake (Total (1~35 days of age)): 98.6^bc g/day
- Survival rate (Total (1~35 days of age)): 95.0%
- Weight gain (Total (1~35 days of age)): 55.3^e g/day
- weight gain, feed intake and feed conversion ratios compared with the control group (entire breeding period, result in words): no significant difference
